Assay [1] concerns the target T1, Ins(1,3,4,5,6)P5 1-phosphatase activity of Ins(3,4,5,6)P4 kinase (Homo sapiens, UniProt Q13572).
T1 construct: made in house; host or cells: E. coli
T1 sequence (Q13572 1-414): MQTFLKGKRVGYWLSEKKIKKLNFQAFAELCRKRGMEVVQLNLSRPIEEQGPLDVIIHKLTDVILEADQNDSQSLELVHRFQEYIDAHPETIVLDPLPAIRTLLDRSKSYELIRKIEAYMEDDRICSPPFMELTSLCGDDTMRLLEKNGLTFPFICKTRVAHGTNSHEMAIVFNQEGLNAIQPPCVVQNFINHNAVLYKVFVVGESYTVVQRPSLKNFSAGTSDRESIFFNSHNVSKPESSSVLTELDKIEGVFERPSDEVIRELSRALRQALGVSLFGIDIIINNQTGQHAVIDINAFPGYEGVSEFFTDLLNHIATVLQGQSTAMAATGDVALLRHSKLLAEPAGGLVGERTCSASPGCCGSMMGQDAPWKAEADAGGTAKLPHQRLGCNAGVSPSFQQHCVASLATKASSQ
Description: Inositol phosphate phosphatase activity assay with ADP (HPLC). Particulars: 5 μM Ins(1,3,4,5,6)P5, 5 mM ADP, addition of 1-5 μM Ins(1,3,4)P3. In kind it is biochemical. Here is the method: Ins(3,4,5,6)P4 kinase (0.4 μg) was incubated for 30 min in 100 μl phosphatase assay buffer (see Methods) either with (closed circles) or without (open circles) 5 mM ADP plus trace-amounts of either [^3H]Ins(1,3,4,5,6)P5 (panel A) [^3H]Ins(1,3,4,6)P4 (panel B), or [^3H]Ins(1,3,4,5)P4 (panel C). Samples were analyzed by HPLC (see Methods). The elution positions of Ins(1,3,4)P3 and Ins(3,4,5,6)P4 were verified with genuine standards. The elution positions of Ins(1,3,4,6)P4 (106 min, panel B) and of Ins(1,3,4,5)P4 (110 min, panel C) exclude these as products of InsP5 dephosphorylation (panel A).
Additional incubations were performed with 5 μM [^3H]Ins(1,3,4)P3 (approx. 1200 d.p.m.) plus either no Ins(1,3,4,5,6)P5 (open circles) or 5 μM non-radiolabeled Ins(1,3,4,5,6)P5 (closed circles); these reactions were assayed by HPLC (Synchropak Q100 column) and the InsP4 region of the chromatogram is shown in Panel B.
(§1) Inositol phosphate phosphatase activity was assayed in buffer containing 100 mM KCl, 20 mM HEPES pH 7.2, 5 mM ADP, 6 mM MgSO4, 0.3 mg/ml bovine serum albumin. Assays were acid-quenched, neutralized and analyzed by HPLC using a Synchropak Q100 columm (Caffrey et al., “Expanding Coincident Signaling by PTEN through its Inositol 1,3,4,5,6-Pentakisphosphate 3-phosphatase Activity,” FEBS Lett 499: 6-10 (2001)); 1 ml fractions were collected for 70 min., followed by 0.5 ml fractions. Inositol phosphate kinase activity was assayed in buffer containing 100 mM KCl, 20 mM HEPES pH 7.2, 5 mM ATP, 10 mM phosphocreatine, 6 mM MgSO4, 10 μg/ml creatine phosphokinase (Calbiochem), 0.3 mg/ml bovine serum albumin. Some assays were acid-quenched and analyzed by HPLC using a Synchropak Q100 column. Other reactions were heat-inactivated (95° C., 3 min) and analyzed by a metal dye detection, HPLC method (Mayr, “A novel metal-dye detection sysytem permits picomolar-range h.p.l.c. analysis of inositol polyphosphates from non-radioactively labelled cell or tissue specimens,” Biochem J 254: 585-591 (1988); Adelt et al., “Enzyme-assisted total synthesis of the optical antipodes D-myo-inositol 3,4,5-trisphosphate and D-myo-inositol 1,5,6-trisphosphate: aspects of their structure-activity relationship to biologically active inositol phosphates,” J Med Chem 42: 1262-1273 (1999)).

Assay [2] addresses T2, Recombinant human Ins(3,4,5,6)P4 1-kinase (Homo sapiens, UniProt Q13572).
T2 construct: made in house; host or cells: E. coli
T2 sequence (Q13572 1-414): T1 sequence (Q13572 1-414)
Description: Inositol phosphate kinase activity assay (HPLC). It is filed as biochemical. The conditions noted are these: for product of phosphorylation by the kinase: 50 uM substrate, 3.4 ug enzyme, 4 hr, 37° C., 5 mM ATP. On the procedure: as §1
Activity of 3.4 ug of inositol 3,4,5,6-tetrakisphosphate 1-kinase was assayed for 4 hr. at 37° C. in 200 μl buffer containing 100 mM KCl, 20 mM HEPES pH 7.2, 5 mM ATP, 10 mM phosphocreatine, 6 mM MgSO4, 10 μg/ml creatine phosphokinase (Calbiochem), 0.3 mg/ml bovine serum albumin and 50 uM of either inositol 3,4,5-trisphosphate, 4,5,6-trisphosphate or inositol 3,5,6-trisphosphate. Reactions were heat-inactivated (95° C., 3 min) and analyzed by a metal dye detection, HPLC method.
[…] (Manassas, Va.) supplied the CFPAC-1 cells and T84 cells. Recombinant human Ins(3,4,5,6)P4 1-kinase was expressed in E. coli and purified (Yang et al., “Multitasking in Signal Transduction by a Promiscuous Human Ins(3,4,5,6)P4 1-Kinase/Ins(1,3,4)P3 5/6-Kinase,” Biochem J 351: 551-555 (2000)). Non-radiolabeled Ins(1,3,4)P3 and Ins(1,3,4,5,6)P5 were purchased from CellSignals Inc (Lexington, Ky.). The details of the synthesis of non-radiolabeled Ins(3,4,5)P3, Ins(3,5,6)P3, Ins(4,5,6)P3 and Ins(3,4,6)P3 (as sodium salts) will be published separately by S.-K. C. Ins(3,4,6)P3 was also prepared by a different synthetic route (Mills et al., “Synthesis of D- and L-myo-inositol 1,4,6-trisphosphate, regioisomers of a ubiquitous second messenger,” J Org Chem 61: 8980-8987 (1996)). [^3H]Ins(1,3,4,5,6)P5 was prepared as previously described (Zhang et al., “The Transcriptional Regulator, Arg82, is a Hybrid Kinase with both Monophosphoinositol- and Diphosphoinositol-Polyphosphate Synthase Activity,” FEBS Lett 494: 208-212 (2001)). [^3H]Ins(1,3,4)P3 was prepared from [^3H]Ins(1,3,4,5)P4 (New England Nuclear) using recombinant Ins(1,4,5)P3/Ins(1,3,4,5)P4 5-phosphatase (Erneux et al., “Production of recombinant human brain type I inositol-1,4,5-trisphosphate 5-phosphatase in Escherichia coli. Lack of phosphorylation by protein kinase C,” Eur J Biochem 234: 598-602 (1995)). [^3H]Ins(1,3,4)P3 was converted to [^3H]Ins(1,3,4,6)P4 using Ins(1,3,4)P3 6-kinase activity (Yang et al., “Multitasking in Signal Transduction by a Promiscuous Human Ins(3,4,5,6)P4 1-Kinase/Ins(1,3,4)P3 5/6-Kinase,” Biochem J 351: 551-555 (2000)). [^3H]Ins(3,4)P2 was prepared by alkaline phosphatase attack on [^3H]Ins(1,3,4)P3 in 20 mM glycine (pH 9.0 with KOH). [^3H]Ins(1,4)P2 was purchased from New England Nuclear.

Assay [3] concerns insulin granules in pancreatic β-cells. Description: Insulin granule acidification, LSG fluorescence with patch-clamp and confocal imaging. It is filed as cell-based, mouse. Here is the method: FIG. 6. Ins(3,4,5,6)P4 inhibits acidification of insulin granules in pancreatic β-cells. FIG. 6A, Representative time-courses for intragranular acidification, monitored by increased fluorescence of LSG before and after establishment of the standard whole-cell configuration (see arrow) and the effect of perfusion of intracellular medium (containing 0.4 μM [Ca^2+]free except where “no calcium” is indicated; see Methods) plus either 0 (“control”), 1 or 10 μM Ins(3,4,5,6)P4. FIG. 6B, Mean (±SE) fluorescence changes (n-5-11), during the 60 s that followed establishment of the standard whole-cell configuration, for cells perfused with inositol phosphates as indicated at the base of the bar graph. Where indicated, DIDS (100 μM) were added to the bath solution 30 min prior to patching the cells. Statistical significance was evaluated by Student's unpaired t-test (* P<0.01).
The inositol phosphates used in this study were all purchased from CellSignals Inc (Lexington, Ky.). Insulin granule pH were monitored by combining the patch-clamp technique with confocal imaging. Pancreatic β-cells, isolated and cultured on glass coverslips for 2-24 h, were voltage clamped at −70 mV, as previously described (B9). LysoSensor-Green™ DND-189 (1 μM; Molecular Probes, Leiden, The Netherlands) was added during the last 30 min of cell culture and was also included in the extracellular buffer (B9) that continuously perfused the experimental chamber. All LSG experiments were performed at 20° C. to prevent exocytosis that otherwise interfered with the optical measurements (15). LSG fluorescence was excited using the 488 nm-line of a Zeiss 510 confocal microscope. The emitted light was collected with a 63×/1.3 NA oil objective and a >505 nm filter. Laser scanning was performed with low pixel resolution (128×128) and with 6 s intervals to minimize photo-bleaching. After gigaseal formation, it was ascertained that LSG fluorescence was stable for at least 30 s before the experiment commenced. The intracellular electrode solution contained: 125 mM K-glutamate, 10 mM KCl, 1 0 mM NaCl, 1 mM MgCl2, 5 mM HEPES, 3 mM Mg-ATP, 0.1 mM cAMP, 10 mM EGTA and 7 mM CaCl2 (˜0.4 μM free [Ca^2+]I; pH 7.2 with KOH). In some experiments, marked “no calcium”, there was no added Ca^2+, and the concentration of EGTA was 50 μM. Whole-cell capacitance measurements (at 33° C.) were made with the cells clamped at −70 mV, and the standard whole-cell configuration was established at t=0. Capacitance recordings were made using an EPC-7 patch-clamp amplifier equipped with the software Pulse (version 8.4 and later) and the X-chart extension (HEKA Elektronik, Lambrecht/Pfalz, Germany) (B9).

Assay [4] deals with calcium-activated Cl− channels. Description: Whole-cell Cl− current in CFPAC-1 cells (bio-assay for Ins(3,4,5,6)P4). It is filed as cell-based, human. Particulars: 100 μM introduced into CFPAC-1 cells; control 54±3 pA/pF. Here is the method: T84 cells were detached by incubation with 0.25% (w/v) trypsin/0.02% (w/v) EDTA for 5-6 min. After trypsin removal, 200 μl aliquots (1.5×10^6/ml) were seeded into the circular wells (area=0.45 cm^2) of permeable supports, made by gluing (Silastic® sealant, Dow Corning, Midland, Mich.) a Sylgard® ring to filters composed of mixed cellulose esters (Millipore Corp., Bedford, Mass.). Seeded supports were floated on culture medium and incubated for 11-14 days before being mounted in modified Snapwell holders in Using chambers (EasyMount System, Physiologics Instruments, San Diego, Calif.). Transcellular Cl^− flux was then recorded as the short-circuit current as previously described. The resistance of the monolayers were (vector) 346±44 ohms/cm^2 (mean±se, n=12) and (kinase) 354±62 ohms/cm^2 (mean±se, n=12). Whole-cell Cl^− currents in CFPAC—I cells were measured at +40 mV as previously described using an intracellular Ca^2+-BAPTA buffer to clamp free [Ca^2+] to 0.5 μM [8]. One possibility is that Ins(3,4,5,6)P4 originates by phosphorylation of an InsP3 precursor. […] Control whole-cell Cl^− current (54±3 pA/pF, n—17) was reduced to 24±3 pA/pF (n=7) by 10 μM Ins(3,4,5,6)P4.

Broadly, the Km is the substrate concentration at which the rate is half of its maximum.

On to `O=P(O)(O)O[C@@H]1[C@H](O)[C@H](O)[C@@H](OP(=O)(O)O)[C@H](OP(=O)(O)O)[C@H]1O` [Ins(1,3,4)P3, inositol 1,3,4-trisphosphate], for which the “increase of net accumulation of Ins(3,4,5,6)P4” value in assay [1] is on record as “up to 5 fold”.

As for `O=P(O)(O)O[C@H]1[C@H](O)[C@@H](OP(=O)(O)O)[C@H](OP(=O)(O)O)[C@@H](OP(=O)(O)O)[C@H]1O` [Ins(1,3,4,5)P4], in assay [2], the “whether the enzyme phosphorylates the inositol phosphate” value is listed as “does not phosphorylate”.

In the case of `O=P(O)(O)O[C@H]1[C@H](O)[C@@H](O)[C@H](OP(=O)(O)O)[C@@H](O)[C@H]1O` [Ins(1,4)P2], the “whether the enzyme phosphorylates the inositol phosphate” value in assay [2] is recorded as “not phosphorylated”.

Regarding `O=P(O)(O)O[C@H]1[C@H](OP(=O)(O)O)[C@@H](OP(=O)(O)O)[C@@H](O)[C@@H](O)[C@@H]1OP(=O)(O)O` [Ins(1,4,5,6)P4, inositol 1,4,5,6-tetrakisphosphate], the “whether the enzyme phosphorylates the inositol phosphate” value in assay [2] is “does not phosphorylate”. For the same molecule, in assay [3] (100 μM), the “effect on vesicle acidification” value is recorded as “neither 100 μM Ins(1,4,5,6)P4 nor 100 μM Ins(1,3,4,5,6)P5 affected”.

Turning to `O=P(O)(O)OC1[C@@H](OP(=O)(O)O)[C@@H](O)C(O)[C@H](O)[C@H]1OP(=O)(O)O` (stereo partly drawn) [Ins(3,4,5)P3, inositol 3,4,5-trisphosphate], the “whole-cell Cl− current” value in assay [4] amounted to 61±7 pA/pF. Moreover, in assay [2], the “product of phosphorylation by the kinase” value is “phosphorylated to inositol 3,4,5,6-tetrakisphosphate”.

Regarding `O=P(O)(O)O[C@H]1[C@H](O)[C@H](O)[C@H](OP(=O)(O)O)[C@@H](OP(=O)(O)O)[C@@H]1O` [Ins(3,4,6)P3, inositol 3,4,6-trisphosphate], the “whole-cell Cl− current” value in assay [4] is reported as 68±5 pA/pF. For the same molecule, the “product of phosphorylation by the kinase” value in assay [2] was “metabolized to Ins(1,3,4,5)P4”. In addition, the Km in assay [2] (read-out: Km as kinase substrate) was determined as 0.2 µM.

In the case of `O=P(O)(O)O[C@@H]1[C@@H](O)[C@H](OP(=O)(O)O)[C@@H](OP(=O)(O)O)[C@H](O)[C@@H]1O` [Ins(3,5,6)P3, inositol 3,5,6-trisphosphate], the “whole-cell Cl− current” value in assay [4] turned out to be 60±6 pA/pF. Moreover, the “product of phosphorylation by the kinase” value in assay [2] was “phosphorylated to inositol 1,3,5,6-tetrakisphosphate”.

For `O=P(O)(O)OC1C(O)C(O)C(O)C(OP(=O)(O)O)C1OP(=O)(O)O` (stereo not drawn) [Ins(4,5,6)P3, inositol 4,5,6-trisphosphate], the “whole-cell Cl− current” value in assay [4] came out at 56±7 pA/pF. For the same molecule, the “product of phosphorylation by the kinase” value in assay [2] was “phosphorylated to inositol 1,4,5,6-tetrakisphosphate”.

For the molecule `NCCCCCCNS(=O)(=O)c1cccc2c(Cl)cccc12` [W-7], in assay [3] (treatment of the cells with calmodulin antagonist), the “effect on granule acidification” value is given as “without effect”.

For the origin of these results see patent publication US20060035810A1, “Regulation of ins(3456)p4 signalling by a reversible kinase phosphatase and methods and compositions related thereto” (priority 2002, published 2006).
